Data as given in article PMC7221803, “Structure–Activity Relationships and Biological Evaluation of 7-Substituted Harmine Analogs for Human β-Cell Proliferation” (Molecules, 2020).
“And” between values parts separate entries of the source, which are not always exact repeats. Equal values may be shown once. Read-outs that look alike come from different tables or passages of the source.

Assays:
[1] = target: DYRK1A (Homo sapiens, UniProt Q13627); assay: FRET-based LanthaScreen Eu Kinase Binding Assay for DYRK1A; settings: for IC50: 10 point LanthaScreen Eu Kinase Binding Assay; for inhibition at 0.3 µM: read-out: % DYRK1A Inhibition 300 nM; for inhibition at 1 µM: read-out: % DYRK1A Inhibition 1000 nM; for fold less potent DYRK1A inhibition as compared to harmine: relative to harmine (27 nM); for DYRK1A inhibition (result in words): in vitro at the concentrations tested (1000 nM and 300 nM)
Method: Compounds were tested for DYRK1A binding activity by a commercial kinase profiling services, Life Technologies which uses the FRET-based LanthaScreen® Eu Kinase Binding Assay. Compounds were screened for DYRK1A activity at concentrations of 1000 nM and 300 nM in duplicates. The IC50 was determined by 10 point LanthaScreen® Eu Kinase Binding Assay in duplicates.

[2] = test system: human β-cells; assay: Human β-cell proliferation assay (Ki67-insulin co-immunolabeling, dispersed human islets); format: cell-based; settings: for human β-cell proliferation at screening concentration: 10 μM, Ki-67-insulin co-immunolabeling after 4 days, n = 3
Method: Human pancreatic islets were obtained from the NIH/NIDDK-supported Integrated Islet Distribution Program (IIDP) Duarte, CA, USA (https://iidp.coh.org) and studied using protocols that have been published in detail. Briefly, islets were first dispersed with Accutase (Sigma, St. Louis, MO, USA) onto coverslips, and treated with vehicle (0.1% DMSO) or with harmine-related compounds in RPMI1640 complete medium for 96 h. Then the cells were then, fixed with formaldehyde and immunolabeled for insulin and Ki67 as described below. Total insulin-positive cells and cells double positive Ki67 and insulin positive cells were imaged and counted. Islets from 3–5 different adult donors were tested as described in Figure 4. At least 1000 β-cells were counted for human islet donor.

[3] = 1-2b at 30 μM vs harmine at 10 μM
[4] = compound at 1000 nM, duplicates

| SMILES | inhibition at 0.3 µM ([1]; compound at 300 nM, duplicates) [%] | inhibition at 1 µM [1, 4] [%] | other results |
| --- | --- | --- | --- |
| COC(=O)COc1ccc2c(c1)[nH]c1c(C)nccc12 [1-2a, 2-(7-Oxy-1-methyl-9-H-b-carbolin)acetic acid methyl ester] | – | – | IC50 ([1]; duplicates): 194 ± 11.7 nM; inhibition at 0.3 µM [1]: 58%; inhibition at 1 µM [1]: 85% |
| COC(=O)CCOc1ccc2c(c1)[nH]c1c(C)nccc12 [1-2b, 3-(7-Oxy-1-methyl-9-H-b-carbolin)propionic acid methyl ester] | – | – | IC50 ([1]; duplicates): 89 nM and 89.7 nM; fold less potent DYRK1A inhibition as compared to harmine [1]: 4 fold and ~ 3 fold; human β-cell proliferation at screening concentration [2]: exhibit human β-cell proliferation; human β-cell proliferation relative to harmine (in words) [2, 3]: half that of harmine; maximal human β-cell proliferation as % that of harmine [2, 3]: 66%; human β-cell proliferation dose-response ([2]; dose-response up to 30 μM, n = 3 human islet donors for each dose): induced proliferation in a dose-dependent manner |
| COC(=O)CCCOc1ccc2c(c1)[nH]c1c(C)nccc12 [1-2c, 4-(7-Oxy-1-methyl-9-H-b-carbolin)butnoic acid methyl ester] | 47 | 78 | – |
| COC(=O)CCCCOc1ccc2c(c1)[nH]c1c(C)nccc12 [1-2d, 5-(7-Oxy-1-methyl-9-H-b-carbolin)pentanoic acid methyl ester] | 35 | 67 | – |
| COC(=O)CCCCCOc1ccc2c(c1)[nH]c1c(C)nccc12 [1-2e, 6-(7-Oxy-1-methyl-9-H-b-carbolin)hexanoic acid methyl ester] | – | – | IC50 ([1]; duplicates): 134 ± 4.55 nM; inhibition at 0.3 µM [1]: 56%; inhibition at 1 µM [1]: 81% |
| Cc1nccc2c1[nH]c1cc(OCCNC(=O)OC(C)(C)C)ccc12 [1-2k, 2-(7-Oxy-1-methyl-9-H-b-carbolin)ethyl tert-butyl carbamate] | 35 | 61 | – |
| Cc1nccc2c1[nH]c1cc(OCCCNC(=O)OC(C)(C)C)ccc12 [1-2l, 3-(7-Oxy-1-methyl-9-H-b-carbolin)propyl tert-butyl carbamate] | 24 | 50 | – |
| Cc1nccc2c1[nH]c1cc(OCCCCNC(=O)OC(C)(C)C)ccc12 [1-2m, 4-(7-Oxy-1-methyl-9-H-b-carbolin)butyl tert-butyl carbamate] | 31 | 58 | – |
| Cc1nccc2c1[nH]c1cc(OCCOCCNC(=O)OC(C)(C)C)ccc12 [1-2n, 2-((7-Oxy-1-methyl-9-H-b-carbolin)ethoxy)ethyl tert-butyl carbamate] | 27 | 48 | – |
| COCCOc1ccc2c(c1)[nH]c1c(C)nccc12 [1-2o, 2-(7-oxy-1-methyl-9-H-b-carbolin)methoxyethyl] | – | – | DYRK1A inhibition (result in words) [1]: not favorable for the DYRK1A inhibition; inhibition at 0.3 µM [1]: 23%; inhibition at 1 µM [1]: 48% |
| CCOCCOc1ccc2c(c1)[nH]c1c(C)nccc12 [1-2p, 3-(7-Oxy-1-methyl-9-H-b-carbolin)ethoxyethyl] | 19 | 37 | DYRK1A inhibition (result in words) [1]: not favorable for the DYRK1A inhibition |
| Cc1nccc2c1[nH]c1cc(OCC(N)=O)ccc12 [1-3a, 2-(7-Oxy-1-methyl-9-H-b-carbolin)acetamide] | 10 | 30 | – |
| Cc1nccc2c1[nH]c1cc(OCCC(N)=O)ccc12 [1-3b, 3-(7-Oxy-1-methyl-9-H-b-carbolin)propionamide] | – | – | IC50 ([1]; duplicates): 91 nM; fold less potent DYRK1A inhibition as compared to harmine [1]: ~ 3 fold; human β-cell proliferation at screening concentration [2]: exhibit human β-cell proliferation |
| Cc1nccc2c1[nH]c1cc(OCCCC(N)=O)ccc12 [1-3c, 4-(7-Oxy-1-methyl-9-H-b-carbolin)butanamide] | 32 | 58 | – |
| Cc1nccc2c1[nH]c1cc(OCCCCC(N)=O)ccc12 [1-3d, 5-(7-Oxy-1-methyl-9-H-b-carbolin)pentanamide] | 67 | 88 | – |
| Cc1nccc2c1[nH]c1cc(OCCCCCC(N)=O)ccc12 [1-3e, 6-(7-Oxy-1-methyl-9-H-b-carbolin)hexanamide] | 39 | 67 | – |

| SMILES | inhibition at 0.3 µM ([1]; compound at 300 nM, duplicates) [%] | inhibition at 1 µM [1, 4] [%] | other results |
| --- | --- | --- | --- |
| Cc1nccc2c1[nH]c1cc(OCC(=O)O)ccc12 [1-4a, 2-(7-Oxy-1-methyl-9-H-b-carbolin)acetic acid] | – | – | inhibition at 0.3 µM [1]: 3%; inhibition at 1 µM [1]: 6% |
| Cc1nccc2c1[nH]c1cc(OCCC(=O)O)ccc12 [1-4b, 3-(7-Oxy-1-methyl-9-H-b-carbolin)propionic acid] | – | – | IC50 ([1]; duplicates): 1810 ± 101 nM |
| Cc1nccc2c1[nH]c1cc(OCCCC(=O)O)ccc12 [1-4c, 4-(7-Oxy-1-methyl-9-H-b-carbolin)butnoic acid] | 6 | 19 | – |
| Cc1nccc2c1[nH]c1cc(OCCCCC(=O)O)ccc12 [1-4d, 5-(7-Oxy-1-methyl-9-H-b-carbolin)pentanoic acid] | 20 | 44 | – |
| Cc1nccc2c1[nH]c1cc(OCCCCCC(=O)O)ccc12 [1-4e, 6-(7-Oxy-1-methyl-9-H-b-carbolin)hexanoic acid] | 43 | 74 | – |
| Cc1nccc2c1[nH]c1cc(OCCN)ccc12 [1-5a, 2-(7-Oxy-1-methyl-9-H-b-carbolin)ethylamine hydrochloric acid] | 12 | 25 | – |
| Cc1nccc2c1[nH]c1cc(OCCCN)ccc12 [1-5b, 3-(7-Oxy-1-methyl-9-H-b-carbolin)propylamine hydrochloric acid] | – | – | inhibition at 0.3 µM [1]: 8%; inhibition at 1 µM [1]: 28% |
| Cc1nccc2c1[nH]c1cc(OCCCCN)ccc12 [1-5c, 4-(7-Oxy-1-methyl-9-H-b-carbolin)butylamine hydrochloric acid] | 15 | 42 | – |
| Cc1nccc2c1[nH]c1cc(OCCOCCN)ccc12 [1-5d, 2-((7-Oxy-1-methyl-9-H-b-carbolin)ethoxy)ethylamine hydrochloric acid] | 15 | 32 | – |
| CC(=O)NCCOc1ccc2c(c1)[nH]c1c(C)nccc12 [1-6a, 2-(7-Oxy-1-methyl-9-H-b-carbolin)-2-acetyl-ethylamine] | 24 | 49 | – |
| CC(=O)NCCCOc1ccc2c(c1)[nH]c1c(C)nccc12 [1-6b, 3-(7-Oxy-1-methyl-9-H-b-carbolin) -2-acetyl-propylamine] | 22 | 49 | – |
| CC(=O)NCCCCOc1ccc2c(c1)[nH]c1c(C)nccc12 [1-6c, 4-(7-Oxy-1-methyl-9-H-b-carbolin) -2-acetyl-butylamine] | 45 | 69 | – |
| CC(=O)NCCOCCOc1ccc2c(c1)[nH]c1c(C)nccc12 [1-6d, 2-((7-Oxy-1-methyl-9-H-b-carbolin)ethoxy)-2-acetyl-ethylamine] | 17 | 41 | – |
| Cc1nccc2c1[nH]c1cc(N)ccc12 [1-9, 7-Amino-1-methyl-9H-b-carboline] | – | – | DYRK1A inhibition (result in words) [1]: completely lost its DYRK1A inhibitory activity; inhibition at 0.3 µM [1]: 8%; inhibition at 1 µM [1]: 21% |
| Cc1nccc2c1[nH]c1cc(NC(=O)c3ccccc3)ccc12 [1-11, 7-Benzamide-1-methyl-9H-b-carboline] | 48 | 77 | IC50 ([1]; duplicates): 389 ± 32.6 nM; DYRK1A inhibition (result in words) [1]: partially recovered |
| Cc1nccc2c1[nH]c1cc(OC(=O)NC(C)C)ccc12 [1-12, 1-Methyl-9H-pyrido[3,4-b]indol-7-yl isopropylcarbamate] | – | – | DYRK1A inhibition (result in words) [1]: moderately active; inhibition at 0.3 µM [1]: 42%; inhibition at 1 µM [1]: 69% |
